Test [1] concerns the target T1, nucleotide exchange on hKRASG12C mediated by hSOS1 (Homo sapiens, UniProt Q07889).
T1 construct: HIS-hSOS1, 564-1049aa mediated GTP loading onto GST-hKRASG12C; His (N); made in house
T1 sequence (Q07889 564-1049): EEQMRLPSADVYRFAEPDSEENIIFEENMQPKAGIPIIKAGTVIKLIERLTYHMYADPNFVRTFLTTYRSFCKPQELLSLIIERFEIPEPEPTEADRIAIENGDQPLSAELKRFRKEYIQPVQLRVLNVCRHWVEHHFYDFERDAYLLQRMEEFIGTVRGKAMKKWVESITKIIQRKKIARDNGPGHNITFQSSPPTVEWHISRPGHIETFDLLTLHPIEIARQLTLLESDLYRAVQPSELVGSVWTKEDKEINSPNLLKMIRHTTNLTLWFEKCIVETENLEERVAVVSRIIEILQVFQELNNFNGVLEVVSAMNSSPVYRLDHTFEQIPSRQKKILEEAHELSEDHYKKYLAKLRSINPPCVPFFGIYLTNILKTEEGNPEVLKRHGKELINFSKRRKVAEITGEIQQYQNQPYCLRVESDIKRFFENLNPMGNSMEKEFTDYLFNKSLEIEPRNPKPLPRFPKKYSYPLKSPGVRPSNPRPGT
Description: Guanine nucleotide exchange assay (GNEA, HTRF). The class given is biochemical. As to conditions: HIS-hSOS1 564-1049aa mediated GTP loading onto GST-hKRASG12C 1-169aa, read-out: Guanine nucleotide exchange inhibition IC50. Here is the method: Example-154: Guanine nucleotide exchange assay (GNEA) GNEA assay was conducted to evaluate the effects of compounds on the nucleotide exchange on hKRASG12C mediated by hSOS1. Inhibitory effect of compounds on HIS-hSOS1, 564-1049aa mediated GTP loading onto GST-hKRASG12C, 1-169aa both expressed and purified in-house was assessed using HTRF detection technology in biochemical assay. Compounds were pre-incubated with hSOS1 working solution containing 10-50 nM hSOS1 and 200 nM EDA-GTP-DY-647P1 (Custom manufactured, Jena Biosciences) per well of a 384 well plate (Perkin Elmer, Cat #6007290) for 10 min at 20° C. in the assay buffer containing 10 mM HEPES, pH 7.4, 150 mM NaCl, 5 mM MgCl2, 1 mM DTT, 0.05% BSA fraction V and 0.0025% Igepal. Reaction was initiated by adding working solution of hKRASG12C containing 25-125 nM hKRASG12C and MAb Anti-GST-Tb (#61GSTTLA, Cisbio BioAssays) in assay buffer. Total assay volume was 15 μL. Reaction was continued for 30-60 min at 20° C. HTRF signal was recorded in PHERAStar microplate reader. Ratio of signal obtained at 665 nm and 620 nm was used to compute the percent inhibition of compound as follows.

Test [2] addresses T2, protein-protein interaction between hSOS1 and hKRASG12C (Homo sapiens, UniProt Q07889).
T2 construct: GST-hSOS1, 564-1049aa expressed and purified in-house
T2 sequence (Q07889 564-1049): T1 sequence (Q07889 564-1049)
Nature of the test: KRAS-SOS1 interaction assay (HTRF). The class given is binding. To be noted: GST-hSOS1 564-1049aa, HIS-hKRASG12C, read-out: KRAS-SOS1 Interaction inhibition IC50. Here is the method: Interaction assay was conducted to evaluate the ability of the compounds to disrupt the protein-protein interactions between hSOS1 and hKRASG12C. Inhibitory effect of compounds on GST-hSOS1, 564-1049aa expressed and purified in-house and HIS-hKRASG12C (R06-32DH, SignalChem) interaction was assessed using HTRF detection technology in biochemical assay. Compounds were pre-incubated with 10-50 nM working solution of hSOS1 per well of a 384 well plate (Perkin Elmer, Cat #6007290) for 10 min at 20° C. in the assay buffer containing 5 mM HEPES, pH 7.4, 150 mM NaCl, 10 mM EDTA, 1 mM DTT, 0.05% BSA fraction V and 0.0025% Igepal. Reaction was initiated by adding 100-300 nM working solution of hKRASG12C in assay buffer. Total assay volume was 15 μL. Reaction was continued for 30-60 min at 20° C. Then detection solution containing MAb Anti-GST-d2 (#61GSTDLA, Cisbio BioAssays) and MAb Anti-HIS-Tb (#61HISTLA, Cisbio BioAssays), all prepared in HTRF detection buffer (#61DB10RDF, Cisbio BioAssays) was added and further incubated for 30-60 min at 20° C. HTRF signal was recorded in PHERAStar microplate reader. Ratio of signal obtained at 665 nm and 620 nm was used to compute the percent inhibition of compound utilizing the following formula: […]

For test [3], the system named is pERK after EGF stimulation in DLD1 cells. Nature of the test: ERK phosphorylation assay (alphascreen pERK). The class given is cell-based. To be noted: Homo sapiens, DLD-1, 2 h compound, 200 ng/ml hEGF for 5 minutes, read-out: ERK phosphorylation inhibition IC50. Here is the method: Compounds were tested for their ability to inhibit pERK after EGF stimulation in DLD1 cells. Cells were seeded at 0.2 million cells per well in 96 well cell binding tissue culture plate in 100 μL complete media and were allowed to settle overnight (16 to 20 h). On the following day, cells were treated with various concentrations of test compounds for 2 h followed by stimulation with 200 ng/ml hEGF (diluted in PBS) for 5 minutes. Cells were then washed once with PBS and lysed in freshly prepared lysis buffer (provided with alphascreen surefire ERK1/2 p-T202/Y204 assay kit, cat no: TGRESB10K, Perkin Elmer). Lysis was carried out in plate shaker for 10-15 mins. Lysate was transferred to […] white opti-plate (Perkin Elmer) and alphascreen for pERK was carried out as per manufacturer's instructions. Plate was read after 2 h incubation in plate shaker at […] 300 RPM, 25-28° C. The difference between the unstimulated and stimulated Vehicle control is considered as 100% ERK phosphorylation, and % inhibition of compounds is calculated accordingly.

`Cc1nc(N[C@H](C)c2cccc(C(F)(F)C(C)(C)O)c2F)c2cc3c(cc2n1)OC(C(C)C)C(=O)N3C` (single isomer, unassigned) [Compound 32b]: the IC50 was in the range of 1 to 30 nM in test [1], 1 to 10 nM in test [2] and 1 to 200 nM in test [3].
Regarding `Cc1nc(N[C@H](C)c2cccc(C(F)(F)C(C)(C)O)c2F)c2cc3c(cc2n1)nc(C)c(=O)n3C` [Compound 39, (R)-4-((1-(3-(1,1-Difluoro-2-hydroxy-2-methylpropyl)-2-fluorophenyl)ethyl)amino)-2,6,8-trimethylpyrazino[2,3-g]quinazolin-7(6H)-one], the IC50 in test [1] was 1 to 30 nM; in test [2] it was 1 to 10 nM; in test [3], 1 to 200 nM.
Consider `Cc1nc(N[C@H](C)c2cccc(C(F)(F)C(C)(C)O)c2F)c2cc3c(cc2n1)OC(C)C(=O)N3C` (single isomer, unassigned) [Compound 31b], for which the IC50 in test [1] lay in the range of 1 to 30 nM; in test [2] it was 1 to 10 nM; in test [3], 1 to 200 nM.
For the compound `Cc1nc(N[C@H](C)c2cccc(C(F)(F)C(C)(C)O)c2F)c2cc3c(cc2n1)c(=O)n(C)c(=O)n3C` [Compound 29, (R)-9-((1-(3-(1,1-difluoro-2-hydroxy-2-methylpropyl)-2-fluorophenyl)ethyl)amino)-1,3,7-trimethylpyrimido[4,5-g]quinazoline-2,4(1H,3H)-dione], the IC50 in test [1] fell in the range of 1 to 30 nM; in test [2] it was 1 to 10 nM; in test [3], 1 to 200 nM.
For `COCC1(C)C(=O)N(C)c2cc3c(N[C@H](C)c4cccc(C(F)(F)C(C)(C)O)c4F)nc(C)nc3cc21` (mixture of isomers) [Compound 98, (R&S)-4-(((R)-1-(3-(1,1-difluoro-2-hydroxy-2-methylpropyl)-2-fluorophenyl)ethyl)amino)-8-(methoxymethyl)-2,6,8-trimethyl-6,8-dihydro-7H-pyrrolo[2,3-g]quinazolin-7-one] the same measures were 1 to 30 nM, 11 to 25 nM and 1 to 200 nM.
Take `Cc1nc(N[C@H](C)c2cccc(C(F)(F)CO)c2F)c2cc3c(cc2n1)O[C@@H](C)C(=O)N3C` (single isomer, unassigned) [Compound 30a]: the IC50 in test [1] is 1 to 30 nM; in test [2], 1 to 10 nM; in test [3] it was 1 to 200 nM.
On the same counts, the results for `Cc1nc(N[C@H](C)c2cccc(C(F)(F)C(C)(C)O)c2F)c2cc3c(cc2n1)C1(CCOC1)C(=O)N3C` (single isomer, unassigned) [Compound 128b] are 31 to 130 nM, 1 to 10 nM and 1 to 200 nM.
Take `CNCC(C)(O)C(F)(F)c1cccc([C@@H](C)Nc2nc(C)nc3cc4c(cc23)N(C)C(=O)C4(C)C)c1F` (single isomer, unassigned) [Compound 130a]: the half-inhibitory concentration (IC50) in test [1] is 1 to 30 nM; in test [2], 1 to 10 nM; in test [3], 1 to 200 nM.
For `Cc1nc(N[C@H](C)c2cccc(C(F)(F)C(C)(C)O)c2F)c2cc3c(cc2n1)[C@]1(CCOC1)C(=O)N3C` (single isomer, unassigned) [Compound 128a], the IC50 in test [1] was in the range of 1 to 30 nM; in test [2], 1 to 10 nM; in test [3], 1 to 200 nM.
For `Cc1nc(N[C@H](C)c2cc(N)cc(C(F)(F)F)c2)c2cc3c(cc2n1)C(C)(C)C(=O)N3C` [Compound 70, (R)-4-((1-(3-amino-5-(trifluoromethyl)phenyl)ethyl)amino)-2,6,8,8-tetramethyl-6H-pyrrolo[2,3-g]quinazolin-7(8H)-one] the same measures were 31 to 130 nM, 1 to 10 nM and 1 to 200 nM.
With `Cc1nc(N[C@H](C)c2cccc(C(F)(F)C(C)(C)O)c2F)c2cc3c(c(C)c2n1)N(C)C(=O)C3(C)C` [Compound 90, (R)-4-((1-(3-(1,1-difluoro-2-hydroxy-2-methylpropyl)-2-fluorophenyl)ethyl)amino)-2,6,6,8,9-pentamethyl-6,8-dihydro-7H-pyrrolo[3,2-g]quinazolin-7-one], the IC50 in test [1] is 31 to 130 nM; in test [2], 1 to 10 nM; in test [3] it was 1 to 200 nM.
On to `Cc1nc(N[C@H](C)c2cccc(C(F)(F)C(C)(O)CF)c2F)c2cc3c(cc2n1)OC(C)(C)C(=O)N3C` (stereo partly drawn) [Compound 54, (R&S)-4-(((1R)-1-(2-fluoro-3-(1,1,3-trifluoro-2-hydroxy-2-methylpropyl)phenyl)ethyl)amino)-2,6,8,8-tetramethyl-6H-[1,4]oxazino[3,2-g]quinazolin-7(8H)-one], for which the figures for the half-inhibitory concentration (IC50) in test [1], in test [2] and in test [3] were 1 to 30 nM, 1 to 10 nM and 1 to 200 nM, respectively.
Turning to `COCC1(C)C(=O)N(C)c2cc3c(N[C@H](C)c4cccc(C(F)(F)C(C)(C)O)c4F)nc(C)nc3cc21` (single isomer, unassigned) [Compound 98a], the figures for the IC50 in test [1], in test [2] and in test [3] were 1 to 30 nM, 1 to 10 nM and 1 to 200 nM, respectively.
On the same counts, the results for `Cc1nc(N[C@H](C)c2cccc(C(F)(F)C(C)(C)O)c2F)c2cc3c(cc2n1)C1(CCOCC1)C(=O)N3C` [Compound 122, (R)-4′-((1-(3-(1,1-difluoro-2-hydroxy-2-methylpropyl)-2-fluorophenyl)ethyl)amino)-2′,6′-dimethyl-2,3,5,6-tetrahydrospiro[pyran-4,8′-pyrrolo[2,3-g]quinazolin]-7′(6′H)-one] are 1 to 30 nM, 1 to 10 nM and 1 to 200 nM.
For the compound `COCCN1C(=O)C(C)(C)c2cc3nc(C)nc(N[C@H](C)c4cccc(C(F)(F)C(C)(C)O)c4F)c3cc21` [Compound 63, (R)-4-((1-(3-(1,1-difluoro-2-hydroxy-2-methylpropyl)-2-fluorophenyl)ethyl)amino)-6-(2-methoxyethyl)-2,8,8-trimethyl-6,8-dihydro-7H-pyrrolo[2,3-g]quinazolin-7-one], the values for the IC50 in test [1], in test [2] and in test [3] were 1 to 30 nM, 1 to 10 nM and 1 to 200 nM, respectively.
As to `Cc1nc(N[C@H](C)c2cc(N)cc(C(F)(F)F)c2)c2cc3c(cc2n1)C1(CCOCC1)C(=O)N3C` [Compound 138, (R)-4′-((1-(3-amino-5-(trifluoromethyl)phenyl)ethyl)amino)-2′,6′-dimethyl-2,3,5,6-tetrahydrospiro[pyran-4,8′-pyrrolo[2,3-g]quinazolin]-7′(6′H)-one], the figures for the IC50 in test [1], in test [2] and in test [3] were 31 to 130 nM, 11 to 25 nM and 1 to 200 nM, respectively.

These data come from patent publication US20260209247A1, “Substituted Tricyclic Compounds” (Lupin Limited, priority 2019, published 2026).
